Laboratory results as given in ChEMBL document CHEMBL1909046, “DrugMatrix in vitro pharmacology data”.

Experiments:
[1] = target: T1, Vasoactive intestinal polypeptide receptor 1 (Homo sapiens, UniProt P32241); format: cell membranes, Membrane; conditions: ht-29; also: in other assays of this panel Not Active means under 50% inhibition at 10 µM
T1 sequence (P32241 whole entry): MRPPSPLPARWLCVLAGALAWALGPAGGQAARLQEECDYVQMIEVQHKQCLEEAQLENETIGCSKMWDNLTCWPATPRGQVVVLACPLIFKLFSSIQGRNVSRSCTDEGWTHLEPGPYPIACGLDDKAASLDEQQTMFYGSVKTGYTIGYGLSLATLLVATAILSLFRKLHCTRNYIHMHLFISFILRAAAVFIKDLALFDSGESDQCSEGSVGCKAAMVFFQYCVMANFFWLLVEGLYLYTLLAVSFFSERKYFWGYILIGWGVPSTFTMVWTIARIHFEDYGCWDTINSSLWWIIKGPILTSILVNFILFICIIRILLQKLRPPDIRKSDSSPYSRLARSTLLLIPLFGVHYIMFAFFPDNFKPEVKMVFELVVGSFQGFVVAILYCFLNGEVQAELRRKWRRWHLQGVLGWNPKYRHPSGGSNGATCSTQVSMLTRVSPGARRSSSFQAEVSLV

[2] = DRUGMATRIX: beta-Lactamase enzyme inhibition (substrate: Nitrocefin); parameters: species or system Bacillus cereus; conditions: Not Active = under 50% inhibition at 10 µM
[3] = target: Receptor tyrosine-protein kinase erbB-2 (Homo sapiens, UniProt P04626); assay: biochemical; format: cell-based, Insect cells; conditions: insect cells;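 also: inhibition of HER2 kinase enzyme activity, measured with Poly(Glu:Tyr) as the phosphorylation substrate; in other assays of this panel Not Active means under 50% inhibition at 10 µM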
Sequence of Receptor tyrosine-protein kinase erbB-2 (P04626 whole entry): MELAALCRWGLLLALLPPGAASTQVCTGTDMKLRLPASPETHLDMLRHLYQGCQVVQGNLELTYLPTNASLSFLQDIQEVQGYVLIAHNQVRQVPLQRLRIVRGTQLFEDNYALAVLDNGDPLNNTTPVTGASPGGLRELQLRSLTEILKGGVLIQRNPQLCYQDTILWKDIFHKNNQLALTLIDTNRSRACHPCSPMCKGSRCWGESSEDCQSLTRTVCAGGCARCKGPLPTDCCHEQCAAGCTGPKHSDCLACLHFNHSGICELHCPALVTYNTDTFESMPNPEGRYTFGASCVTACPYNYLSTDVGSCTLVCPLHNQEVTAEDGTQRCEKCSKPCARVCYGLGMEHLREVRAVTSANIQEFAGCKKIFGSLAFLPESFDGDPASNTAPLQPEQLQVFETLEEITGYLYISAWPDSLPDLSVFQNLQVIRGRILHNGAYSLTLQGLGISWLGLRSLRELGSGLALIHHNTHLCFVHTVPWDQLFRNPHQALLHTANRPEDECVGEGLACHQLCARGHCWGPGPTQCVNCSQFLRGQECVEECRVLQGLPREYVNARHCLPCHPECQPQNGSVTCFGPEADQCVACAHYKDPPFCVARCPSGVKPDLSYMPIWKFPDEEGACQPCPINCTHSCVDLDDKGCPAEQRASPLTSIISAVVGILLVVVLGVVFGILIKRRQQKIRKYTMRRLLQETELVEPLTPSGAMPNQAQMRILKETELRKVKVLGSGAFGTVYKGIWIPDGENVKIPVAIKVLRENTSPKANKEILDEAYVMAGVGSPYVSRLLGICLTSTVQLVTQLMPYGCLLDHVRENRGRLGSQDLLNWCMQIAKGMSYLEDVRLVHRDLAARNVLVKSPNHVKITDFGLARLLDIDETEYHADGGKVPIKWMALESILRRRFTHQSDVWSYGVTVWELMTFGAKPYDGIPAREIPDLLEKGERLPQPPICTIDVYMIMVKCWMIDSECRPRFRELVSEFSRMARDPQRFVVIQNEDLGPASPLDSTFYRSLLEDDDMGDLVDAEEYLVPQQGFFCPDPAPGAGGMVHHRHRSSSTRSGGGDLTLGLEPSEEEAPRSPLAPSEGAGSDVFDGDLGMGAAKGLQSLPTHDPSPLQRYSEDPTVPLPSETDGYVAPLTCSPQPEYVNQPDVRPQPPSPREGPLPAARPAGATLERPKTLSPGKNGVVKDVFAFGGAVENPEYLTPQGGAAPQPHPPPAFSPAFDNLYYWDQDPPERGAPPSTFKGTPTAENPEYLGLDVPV

[4] = target: Kappa-type opioid receptor (Homo sapiens, UniProt P41145); assay: DRUGMATRIX: Opiate kappa (OP2, KOP) radioligand binding (ligand: [3H] Diprenorphine); format: cell membranes, HEK293, Membrane; conditions: hek293; Not Active = under 50% inhibition at 10 µM
Sequence of Kappa-type opioid receptor (P41145 whole entry): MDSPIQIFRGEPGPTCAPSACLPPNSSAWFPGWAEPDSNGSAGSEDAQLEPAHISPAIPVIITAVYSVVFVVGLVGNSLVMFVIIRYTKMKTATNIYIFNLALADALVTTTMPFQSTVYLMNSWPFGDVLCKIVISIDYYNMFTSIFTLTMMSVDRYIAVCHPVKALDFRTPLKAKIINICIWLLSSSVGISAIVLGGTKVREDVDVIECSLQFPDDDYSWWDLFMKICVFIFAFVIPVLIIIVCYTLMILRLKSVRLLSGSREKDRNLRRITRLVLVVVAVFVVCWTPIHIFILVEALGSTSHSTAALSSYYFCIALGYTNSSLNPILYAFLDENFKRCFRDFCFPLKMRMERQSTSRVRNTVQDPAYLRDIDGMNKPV

Estrogen receptor = target: T2, Estrogen receptor (Homo sapiens, UniProt P03372); conditions: sf9; also: in other assays of this panel Not Active means under 50% inhibition at 10 µM
T2 sequence (P03372 whole entry): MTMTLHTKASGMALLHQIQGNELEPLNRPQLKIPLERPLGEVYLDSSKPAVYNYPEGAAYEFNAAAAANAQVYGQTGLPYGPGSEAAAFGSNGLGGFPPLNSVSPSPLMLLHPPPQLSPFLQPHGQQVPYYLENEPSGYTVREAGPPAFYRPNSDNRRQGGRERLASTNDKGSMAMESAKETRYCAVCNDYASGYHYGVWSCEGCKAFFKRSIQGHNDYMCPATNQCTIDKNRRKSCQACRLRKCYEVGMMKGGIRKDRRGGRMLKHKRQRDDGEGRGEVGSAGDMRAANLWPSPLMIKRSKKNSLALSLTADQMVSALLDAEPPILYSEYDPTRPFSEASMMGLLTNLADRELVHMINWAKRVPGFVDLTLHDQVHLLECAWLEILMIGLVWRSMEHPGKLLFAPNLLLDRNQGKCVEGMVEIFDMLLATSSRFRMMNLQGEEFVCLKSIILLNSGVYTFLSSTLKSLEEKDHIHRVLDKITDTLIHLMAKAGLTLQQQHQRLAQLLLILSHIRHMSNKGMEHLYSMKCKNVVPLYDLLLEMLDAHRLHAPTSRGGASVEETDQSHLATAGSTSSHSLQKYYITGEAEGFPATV

Neutrophil elastase = target: T3, Neutrophil elastase (Homo sapiens, UniProt P08246); format: tissue-based;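 also: inhibition of neutrophil elastase enzyme activity, measured with a p-nitroanilide-linked peptide substrate; in other assays of this panel Not Active means under 50% inhibition at 10 µM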
T3 sequence (P08246 whole entry): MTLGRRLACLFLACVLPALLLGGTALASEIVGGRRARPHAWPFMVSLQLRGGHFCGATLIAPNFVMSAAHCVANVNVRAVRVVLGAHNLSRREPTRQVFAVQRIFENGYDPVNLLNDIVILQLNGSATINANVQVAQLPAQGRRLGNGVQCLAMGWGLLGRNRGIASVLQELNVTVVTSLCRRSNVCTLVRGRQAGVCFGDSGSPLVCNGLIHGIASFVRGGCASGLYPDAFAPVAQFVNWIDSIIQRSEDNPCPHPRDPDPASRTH

Glycine receptor = Glycine receptor (Rattus norvegicus, UniProt P22771+P24524+P07727+P20781); format: cell membranes, Wistar, Spinal cord, Membrane; also: in other assays of this panel Not Active means under 50% inhibition at 10 µM
Cytochrome P450 2A6 = target: T4, Cytochrome P450 2A6 (Homo sapiens, UniProt P11509); conditions: bti-tn-5b1-4; also: in other assays of this panel Not Active means under 50% inhibition at 10 µM
T4 sequence (P11509 whole entry): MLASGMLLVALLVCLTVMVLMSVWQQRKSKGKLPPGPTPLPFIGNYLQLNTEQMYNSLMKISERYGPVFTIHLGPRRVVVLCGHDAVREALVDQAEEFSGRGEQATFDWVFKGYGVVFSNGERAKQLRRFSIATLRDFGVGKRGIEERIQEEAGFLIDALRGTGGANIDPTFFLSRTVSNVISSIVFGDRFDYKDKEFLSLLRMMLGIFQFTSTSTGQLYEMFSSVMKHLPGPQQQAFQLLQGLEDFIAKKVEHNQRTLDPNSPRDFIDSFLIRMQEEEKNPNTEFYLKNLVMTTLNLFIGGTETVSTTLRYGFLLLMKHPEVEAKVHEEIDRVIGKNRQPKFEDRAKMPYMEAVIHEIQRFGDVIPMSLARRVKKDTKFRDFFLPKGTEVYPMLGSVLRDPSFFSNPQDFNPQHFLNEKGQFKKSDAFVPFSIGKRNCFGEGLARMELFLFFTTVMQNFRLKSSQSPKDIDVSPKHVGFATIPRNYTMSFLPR

[5] = target: Vascular endothelial growth factor receptor 1 (Homo sapiens, UniProt P17948); format: cell-based; conditions: huvec; also: in other assays of this panel Not Active means under 50% inhibition at 10 µM
Sequence of Vascular endothelial growth factor receptor 1 (P17948 whole entry): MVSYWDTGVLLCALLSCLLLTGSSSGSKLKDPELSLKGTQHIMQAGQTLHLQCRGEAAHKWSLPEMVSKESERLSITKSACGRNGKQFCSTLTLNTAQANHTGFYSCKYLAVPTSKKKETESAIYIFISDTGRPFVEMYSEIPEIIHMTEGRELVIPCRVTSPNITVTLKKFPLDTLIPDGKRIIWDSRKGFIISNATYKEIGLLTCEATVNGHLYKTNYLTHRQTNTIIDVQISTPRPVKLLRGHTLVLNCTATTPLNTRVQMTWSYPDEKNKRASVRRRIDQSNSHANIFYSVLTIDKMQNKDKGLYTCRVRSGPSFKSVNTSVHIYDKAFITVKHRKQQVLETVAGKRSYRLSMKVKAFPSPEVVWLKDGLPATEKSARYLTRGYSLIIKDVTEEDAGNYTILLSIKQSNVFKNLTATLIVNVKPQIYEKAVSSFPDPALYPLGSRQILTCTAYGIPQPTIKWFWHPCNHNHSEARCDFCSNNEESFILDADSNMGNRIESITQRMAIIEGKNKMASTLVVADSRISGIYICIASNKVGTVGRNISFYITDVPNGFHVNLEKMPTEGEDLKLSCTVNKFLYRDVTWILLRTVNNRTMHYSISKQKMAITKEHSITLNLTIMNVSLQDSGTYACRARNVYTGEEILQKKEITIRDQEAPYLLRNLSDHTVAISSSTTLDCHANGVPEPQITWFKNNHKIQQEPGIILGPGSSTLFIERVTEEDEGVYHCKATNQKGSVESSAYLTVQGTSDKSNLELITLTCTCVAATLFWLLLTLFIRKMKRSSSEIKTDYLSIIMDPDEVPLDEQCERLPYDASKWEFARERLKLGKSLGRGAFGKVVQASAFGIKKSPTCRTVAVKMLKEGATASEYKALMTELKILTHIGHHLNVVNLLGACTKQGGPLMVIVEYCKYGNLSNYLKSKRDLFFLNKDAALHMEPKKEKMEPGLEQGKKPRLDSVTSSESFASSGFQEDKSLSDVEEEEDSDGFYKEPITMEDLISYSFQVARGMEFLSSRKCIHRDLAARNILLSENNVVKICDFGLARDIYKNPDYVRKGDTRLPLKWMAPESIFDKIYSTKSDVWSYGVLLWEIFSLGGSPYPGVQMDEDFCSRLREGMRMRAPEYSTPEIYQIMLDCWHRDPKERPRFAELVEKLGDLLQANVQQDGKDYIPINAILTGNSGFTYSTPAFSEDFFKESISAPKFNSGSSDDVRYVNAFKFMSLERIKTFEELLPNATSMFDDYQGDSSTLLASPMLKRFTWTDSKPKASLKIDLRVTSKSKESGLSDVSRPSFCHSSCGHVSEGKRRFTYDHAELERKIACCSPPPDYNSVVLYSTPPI

[6] = DRUGMATRIX: Glutamate, AMPA radioligand binding (ligand: [3H] AMPA); format: cell membranes, Rattus norvegicus, Wistar, Cerebral cortex, Membrane; conditions: Not Active = under 50% inhibition at 10 µM
D(1A) dopamine receptor = D(1A) dopamine receptor (Homo sapiens, UniProt P21728); assay: DRUGMATRIX: Dopamine D1 radioligand binding (ligand: [3H] SCH-23390); format: cell membranes, CHO, Membrane; conditions: cho; Not Active = under 50% inhibition at 10 µM
Sequence of D(1A) dopamine receptor (P21728 whole entry): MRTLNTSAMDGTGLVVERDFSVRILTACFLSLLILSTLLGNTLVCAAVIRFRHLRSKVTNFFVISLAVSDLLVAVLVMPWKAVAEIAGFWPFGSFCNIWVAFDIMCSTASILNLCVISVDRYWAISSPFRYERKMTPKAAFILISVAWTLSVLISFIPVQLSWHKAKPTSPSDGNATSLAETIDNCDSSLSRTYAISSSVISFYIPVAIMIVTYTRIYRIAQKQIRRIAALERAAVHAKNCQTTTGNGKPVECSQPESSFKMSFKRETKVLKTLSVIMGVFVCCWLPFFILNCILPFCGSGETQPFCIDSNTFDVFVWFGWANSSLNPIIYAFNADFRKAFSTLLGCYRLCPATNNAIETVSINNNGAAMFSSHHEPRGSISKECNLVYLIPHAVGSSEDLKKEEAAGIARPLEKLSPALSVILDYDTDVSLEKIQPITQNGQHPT

[7] = target: Mitogen-activated protein kinase 14 (Homo sapiens, UniProt Q16539); parameters: species or system Escherichia coli
Sequence of Mitogen-activated protein kinase 14 (Q16539 whole entry): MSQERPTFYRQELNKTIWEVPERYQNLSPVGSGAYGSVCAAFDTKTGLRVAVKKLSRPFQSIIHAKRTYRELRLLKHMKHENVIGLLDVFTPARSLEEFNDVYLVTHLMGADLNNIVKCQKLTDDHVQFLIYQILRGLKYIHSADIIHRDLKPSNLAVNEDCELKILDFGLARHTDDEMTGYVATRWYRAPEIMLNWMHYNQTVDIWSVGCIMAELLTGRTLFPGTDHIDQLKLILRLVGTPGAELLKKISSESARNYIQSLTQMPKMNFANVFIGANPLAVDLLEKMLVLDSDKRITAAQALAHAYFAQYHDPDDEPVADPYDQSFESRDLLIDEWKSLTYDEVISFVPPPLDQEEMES

Fc1ccc([C@@H]2CCNC[C@H]2COc2ccc3c(c2)OCO3)cc1 [PAROXETINE]
Not Active: IC50 [1] | IC50 [2] | Ki [2] | IC50 [3] | IC50 [4] | IC50 (Estrogen receptor) | IC50 (Neutrophil elastase) | IC50 (Glycine receptor) | IC50 (Cytochrome P450 2A6) | Ki (Cytochrome P450 2A6) | IC50 [5] | IC50 [6] | Ki [6] | IC50 (D(1A) dopamine receptor) | IC50 [7]

CC(=O)CCCCn1c(=O)c2c(ncn2C)n(C)c1=O [PENTOXIFYLLINE]
Not Active: IC50 [1] | IC50 [2] | Ki [2] | IC50 [3] | IC50 [4] | IC50 (Estrogen receptor) | IC50 (Neutrophil elastase) | IC50 (Glycine receptor) | IC50 (Cytochrome P450 2A6) | Ki (Cytochrome P450 2A6) | IC50 [5] | IC50 [6] | Ki [6] | IC50 (D(1A) dopamine receptor) | IC50 [7]

CNC(=O)Oc1ccc2c(c1)[C@]1(C)CCN(C)[C@@H]1N2C [PHYSOSTIGMINE]
Not Active: IC50 [1] | IC50 [2] | Ki [2] | IC50 [3] | IC50 [4] | IC50 (Estrogen receptor) | IC50 (Neutrophil elastase) | IC50 (Glycine receptor) | IC50 (Cytochrome P450 2A6) | Ki (Cytochrome P450 2A6) | IC50 [5] | IC50 [6] | Ki [6] | IC50 (D(1A) dopamine receptor) | IC50 [7]

CN1C(C(=O)Nc2ccccn2)=C(O)c2ccccc2S1(=O)=O [PIROXICAM]
Not Active: IC50 [1] | IC50 [2] | Ki [2] | IC50 [3] | IC50 [4] | IC50 (Estrogen receptor) | IC50 (Neutrophil elastase) | IC50 (Glycine receptor) | IC50 (Cytochrome P450 2A6) | Ki (Cytochrome P450 2A6) | IC50 [5] | IC50 [6] | Ki [6] | IC50 (D(1A) dopamine receptor) | IC50 [7]

CCCc1cc(=O)[nH]c(=S)[nH]1 [PROPYLTHIOURACIL]
Not Active: IC50 [1] | IC50 [2] | Ki [2] | IC50 [3] | IC50 [4] | IC50 (Estrogen receptor) | IC50 (Neutrophil elastase) | IC50 (Glycine receptor) | IC50 (Cytochrome P450 2A6) | Ki (Cytochrome P450 2A6) | IC50 [5] | IC50 [6] | Ki [6] | IC50 (D(1A) dopamine receptor) | IC50 [7]
